According to paper PMC4243815, “A non-pediocin low molecular weight antimicrobial peptide produced by Pediococcus pentosaceus strain IE-3 shows increased activity under reducing environment” (BMC Microbiology, 2014):
≈ marks a conversion by molar mass, not a printed value. Ends that are not written are not given here. Peptide text beside a SMILES is read from it.

Columns and labels:
proteinase K = molecular target: T1, proteinase K (Parengyodontium album, UniProt P06873); assay: Effect of proteolytic enzymes on antimicrobial activity; conditions: 200 μg peptide; proteinase K 5 units; 100 mM Tris HCl pH 8.0 with 10 mM CaCl2; 30°C, 6 h; read-out antimicrobial assay
T1 construct: purchased Sigma, USA

trypsin = assay: as above; conditions: 200 μg peptide; trypsin 10 μg/ml; 100 mM Tris HCl pH 8.0 with 10 mM CaCl2; 30°C, 6 h; read-out antimicrobial assay
Procedure: The sensitivity of the bacteriocin towards different pH, temperatures and proteases was evaluated using purified bacteriocin. The purified peptide was incubated between pH values 2.0-10.0 and temperatures including 80, 100°C for 30 min and 120°C for 15 min. Antimicrobial peptide (200 μg) was incubated with various proteolytic enzymes such as trypsin (10 μg/ml, Sigma, USA), chymotrypsin (5 μg/ml, Sigma, USA) and proteinase K (5 units, Sigma, USA) in 100 mM Tris HCl buffer pH 8.0 (with 10 mM CaCl2) at 30°C for 6 h to determine their effect. The enzyme activity was terminated by heating the reaction mix at 80°C and subsequently used for antimicrobial activity assay. To test the effect of denaturant like DTT (BioRad, USA) on antimicrobial activity of the peptide, it was incubated with 50 to 150 mM DTT at room temperature for 1 h and used for growth inhibition assay. Hydrogen peroxide induced oxidation was tested by incubating the purified peptide with 100 mM concentration of hydrogen peroxide (Merck, India) for 1 h at room temperature and activity was tested by well diffusion assay.

[1] = Storage stability of the purified peptide; assay type: physicochemical
M. luteus = assay type: cell-based, Micrococcus luteus; conditions: 16 h
Procedure: The MIC was determined for various indicator strains using a microtiter plate dilution assay as described earlier. Cell growth was measured by observing OD at 600 nm at 16 h time interval using microtiter plate reader (Multiskan spectrum, Thermo, USA). The protein concentration was determined by BCA protein concentration estimation kit (Thermo, USA) following instructions of the manufacturer. For MIC determination of DTT treated peptide, the DTT solution was filter sterilized and final 100 mM concentration was used to treat peptide.

amylase = assay: Effect of amylase treatment on antimicrobial activity
[2] = Hydrogen peroxide induced oxidation, activity by well diffusion assay; assay type: physicochemical; conditions: 100 mM hydrogen peroxide, 1 h, room temperature
Procedure: (§1) The sensitivity of the bacteriocin towards different pH, temperatures and proteases was evaluated using purified bacteriocin. The purified peptide was incubated between pH values 2.0-10.0 and temperatures including 80, 100°C for 30 min and 120°C for 15 min. Antimicrobial peptide (200 μg) was incubated with various proteolytic enzymes such as trypsin (10 μg/ml, Sigma, USA), chymotrypsin (5 μg/ml, Sigma, USA) and proteinase K (5 units, Sigma, USA) in 100 mM Tris HCl buffer pH 8.0 (with 10 mM CaCl2) at 30°C for 6 h to determine their effect. The enzyme activity was terminated by heating the reaction mix at 80°C and subsequently used for antimicrobial activity assay. To test the effect of denaturant like DTT (BioRad, USA) on antimicrobial activity of the peptide, it was incubated with 50 to 150 mM DTT at room temperature for 1 h and used for growth inhibition assay. Hydrogen peroxide induced oxidation was tested by incubating the purified peptide with 100 mM concentration of hydrogen peroxide (Merck, India) for 1 h at room temperature [36] and activity was tested by well diffusion assay.

[3] = Effect of pH on antimicrobial activity of the purified peptide; assay type: physicochemical
Procedure: as §1

[4] = Effect of DTT on antimicrobial activity of the purified peptide; conditions: 1 h/RT, growth inhibition assay
Procedure: as §1

[5] = tested on: pepsin, trypsin, chymotrypsin, proteinase K and pronase E; conditions: cited from earlier work
Source text: Bacteria produces different kinds of antimicrobial substances including ribosomally synthesized bacteriocins and non-ribosomally synthesized antibiotics or lipopeptides as a part of their defense strategies in complex environments such as fermented foods and the human gut. Members belonging to the lactic acid bacteria (LAB) family with ability to produce bacteriocins are frequently found in these environments. LAB strains are recognized as GRAS (Generally Regarded As Safe) microorganisms and have been studied in detail for biotechnological applications together with the bacteriocins prod ...

T1 sequence (P06873 106-384): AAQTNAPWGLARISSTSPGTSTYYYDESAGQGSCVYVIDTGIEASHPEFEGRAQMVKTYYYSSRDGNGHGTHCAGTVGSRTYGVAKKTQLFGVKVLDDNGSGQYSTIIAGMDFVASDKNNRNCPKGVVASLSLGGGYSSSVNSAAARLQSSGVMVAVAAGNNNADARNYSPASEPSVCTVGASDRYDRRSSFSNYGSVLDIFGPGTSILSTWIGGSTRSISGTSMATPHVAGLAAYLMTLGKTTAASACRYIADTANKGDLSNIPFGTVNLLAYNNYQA

For CC(C)C[C@H](NC(=O)[C@H](Cc1c[nH]cn1)NC(=O)[C@@H](NC(=O)[C@H](CC(C)C)NC(=O)[C@H](CS)NC(=O)CNC(=O)[C@H](CCCNC(=N)N)NC(=O)[C@@H](NC(=O)[C@H](CS)NC(=O)[C@H](CO)NC(=O)[C@H](Cc1ccccc1)NC(=O)[C@@H]1CCCN1C(=O)[C@@H](NC(=O)[C@@H]1CCCN1C(=O)[C@H](C)N)C(C)C)[C@@H](C)O)[C@@H](C)O)C(=O)N[C@H](C(=O)O)C(C)C [LMW peptide] (H-APVPFSCTRGCLTHLV-OH; N-terminus and C-terminus assumed), the “Antimicrobial activity after incubation with proteolytic enzyme” value (proteinase K) was “no reduction in activity”, the “Antimicrobial activity after incubation with proteolytic enzyme” value (trypsin) was “no reduction in activity” and the “Antimicrobial activity during storage” value ([1]; purified peptide stored at room temperature, within 24 h) was “significant reduction in antimicrobial activity”. The “Antimicrobial activity during storage” value ([1]; purified peptide stored at −20°C) was “stable”, the MIC (M. luteus) was 6.3 µM (≈ 10.7 µg/mL) and the “Antimicrobial activity upon treatment with amylase” value (amylase) was “Stable activity”. The “Antimicrobial activity after incubation with H2O2” value [2] was “did not show any antimicrobial activity”, the “Residual activity (%)” value ([3]; pH 2, Overnight/ RT) was 100.0% and the “Residual activity (%)” value ([3]; pH 3, Overnight/ RT) was 100.0%. The “Residual activity (%)” value ([3]; pH 4, Overnight/ RT) was 100.0%, the “Residual activity (%)” value ([3]; pH 5, Overnight/ RT) was 100.0% and the “Residual activity (%)” value ([3]; pH 6, Overnight/ RT) was 87.5%. For the same compound, the “Residual activity (%)” value ([3]; pH 7, Overnight/ RT) was 75.0%, the “Residual activity (%)” value ([3]; pH 8, Overnight/ RT) was 37.5% and the “Residual activity (%)” value ([3]; pH 9, Overnight/ RT) was 25.0%. For the same compound, the “Residual activity (%)” value ([3]; pH 10, Overnight/ RT) was 12.5%, the “Residual activity (%)” value ([4]; DTT 0 mM) was 100.0% and the “Residual activity (%)” value ([4]; DTT 50 mM) was 125.0%. For the same compound, the “Residual activity (%)” value ([4]; DTT 100 mM) was 143.7% and the “Residual activity (%)” value ([4]; DTT 150 mM) was 143.7%.

For “pediocin PA-1: well-studied 4.6 kDa class IIa antimicrobial peptide (bacteriocin) from Pediococcus sp. (KYYGNGVTCGKHSCSVDWGKATTCIINNGAMAWATGGHQGNHKC; ends and bridges not checked; cysteine pairing not given here; UniProt P29430 19-62, looked up)”, the “Effect of proteases on activity” value [5] is given as “inactivated”.
